# Reference: US20200362303A1, “MAINTENANCE-AND-AMPLIFICATION METHOD AND DIFFERENTIATION INDUCTION METHOD FOR PRIMORDIAL GERM CELLS/PRIMORDIAL GERM CELL-LIKE CELLS” (KYOTO UNIVERSITY, priority 2017, published 2020)
# What was measured:
# [1] = test system: PGCLC induced from BVSCDT ESC(XY); assay: Screening for factors inducing female germ cell fate: DT and BV expression by FACS at c7; format: cell-based, mouse; conditions: added from c3, read at c7; RA 100 nM, cytokines 500 ng/ml; BMPs in combination with RA
# Procedure: (§1) The PGC/PGCLC expansion medium was constituted of 10% KSR, 2.5% FBS, 0.1 mM NEAA, 1 mM sodium pyruvate, 2 mM L-glutamine, 0.1 mM 2-mercaptoethanol, 100 U/ml penicillin, 0.1 mg/ml […] streptomycin, […] forskolin, and 10 μM rolipram. The entire medium was changed every 2 days from c3. Cytokines/compounds for induction of female fate were provided from c3 to the end of culture. RA and BMP concentrations used were 100 nM and 300 ng/ml, respectively, unless otherwise specified. Brightfield and fluorescence images were captured using an IX73 inverted microscope (Olympus).
# (§2) The preparation of d4/c0 PGCLC for FACS is described in “ESC culture/induction and PGCLC induction/culture”. To isolate germ cells in vivo, fetal gonads of BVSC, VR or SG mice were cut and processed for FACS according to the procedure described for d4/c0 PGCLC. Culture PGCLC was also prepared by the same method except that, after dissociation, the cells were washed with 0.1% BSA-DMEM containing 100 μg/ml DNase (Sigma-Aldrich), lysed DNA from dead cells was digested to prevent the formation of cell/debris clumps. Fluorescent activity of BV/SG, SC, or DT/VR was detected with FITC, Horizon V500 or PE-Texas Red channels, respectively. FACS data was analyzed using FlowJo or FACS Diva software package.
# In the signal inhibitory experiment, LDN193189 (#04-0074; Stemgent) and BMS493 (B6688; Sigma-Aldrich) dissolved in DMSO were used as ALK2/3 inhibitor and RAR inhibitor, respectively.
# PGC at E11.5 = assay: Ex vivo culture of E11.5 PGC, SCP3/DDX4/SG expression at c4; format: cell-based, mouse; conditions: cultured 4 days; RA alone
# Procedure: (§3) Immunofluorescence (IF) analysis was performed as described previously (Hayashi et al, 2012). The following primary antibodies were used: chicken anti-GFP (ab13970; Abeam), rabbit anti-DDX4 (ab13840; Abeam), mouse anti-DDX4 (ab27591; Abeam), rabbit anti-DAZL (ab34129; Abeam), goat anti-DAZL (sc-27333; Santa Cruz), rabbit anti-STRA8 (ab49602; Abeam), mouse anti-SYCP3 (ab97672; Abeam) and rabbit anti-TEX14 (ab41733; Abeam)IgG. The following secondary antibodies were used: Alexa Fluor 488-goat anti-mouse or chicken IgG; Alexa Fluor 568-goat anti-rabbit IgG and Alexa Fluor 633-goat anti-mouse, anti-chicken IgG; Alexa Fluor 488-donkey anti-mouse IgG; Alexa Fluor 568-donkey anti-rabbit IgG and Alexa Fluor 633-donkey anti-goat IgG. IF images were acquired using a confocal microscope [FV1000 (Olympus) or LSM780 (Zeiss)].
# [2] = test system: PGCLCs induced from BVSCVR ESC (XX); assay: BVSC and VR expression by FACS in cultured PGCLC; format: cell-based, mouse; conditions: added at c3, read at c9; varying concentrations
# Procedure: as §1, §2
# BV/SC(+) cells = assay: Cell cycle analysis by EdU and 7AAD uptake in PGCLC culture; format: cell-based, mouse; conditions: RA alone; c9
# Procedure: Cell cycle analysis was performed using the Click-iT EdU Flow Cytometry Assay Kit (C10424; Thermo Fischer Scientific) according to the manufacturer's instructions. Cultured PGCLC was treated with 10 μg/ml EdU for 30 min to 2 hr and analyzed by FACS.
# cultured PGCLC [3] = assay: Immunofluorescence analysis of STRA8, SCP3, DDX4 in cultured PGCLC; format: cell-based, mouse
# Procedure: as §1, §3
# d4 PGCLC = assay: Expansion culture of d4 PGCLC on m220-5 feeder (cell number fold increase); format: cell-based, mouse
# Procedure: (§4) Since the m220-5 feeder treated with MMC was vulnerable to forskolin and rolipram, m220-5 cells were subcultured 3 times with both forskolin and rolipram each at 10 μM and adapted to these compounds before MMC treatment (1-2 μg/ml for 2 hr). d4 PGCLC or E9.5 PGC(BDF1×Stella-EGFP) was selected by FACS, and the cells were seeded on m220-5 cells in GMEM medium containing 10% KSR, 0.1 mM NEAA, 1 mM sodium pyruvate, 0.1 mM 2-mercaptoethanol, 100 U/ml penicillin, 0.1 mg/ml streptomycin, 2 mM L-glutamine, 2.5% FCS, 100 ng/ml SCF, 10 μM forskolin, and 10 μM rolipram. Half of the culture medium was changed every 2 days.
# (§5) Expansion culture of PGC/PGCLC to investigate the combined effect of cyclosporin A (CsA) was performed as in Example [I], except that 5 μM CsA was added to the medium in addition to 10 μM forskolin and 10 μM loripram (FR10).
# BV (+) d4 PGCLCs = assay: Compound library screening for PGCLC proliferation (BV fluorescence by cell analyzer); format: cell-based, mouse; conditions: three CsA entries in the screening data, two exceeded; 10 μM and 1 μM
# Procedure: d4 PGCLC was seeded by FACS on m220-5 feeders in 96-well plates and BV fluorescence was monitored by cell analyzer (Cellavista; SynenTec). Fluorescence photograph for BV was taken by Cellavista cell analyzer with the following settings: 10× objectives; exposure time: 140 μsec; gain: 4×; binning: 4×4; excitation: 500/24 nm; emission: 542/27 nm. BV fluorescence was detected using the following algorithm/attribute parameters: sensitivity: 10; region merging: 200; min. granule intensity: 50; well edge distance: 200; contrast: 1; size: 3,000; intensity: 255; roughness: 500; granularity: 100; granule intensity: 255; granule count: 10,000; longishness: 100; compactness: 1. The value of “cell nucleus” was used for the detection of BV fluorescence.
# The compound library was screened at concentrations of 10 μM and 1 μM. […] 200 BV (+) d4 PGCLCs induced from BDF1-2 ESC were seeded in the wells of a 96-well plate, and BV fluorescence was measured on the Cellavista cell analyzer on day 1 of culture (c1), c3, c5 and c7. The value of “cell nucleus” was used for the detection of BV fluorescence. […] For each compound, the fold difference in BV fluorescence between c1 and c7 was calculated for each compound and compounds with a fold difference value exceeding 3SD of the mean of the negative control were identified as those that potentiate PGCLC proliferation.
# PGCLC = assay: CsA or FK506 alone at various concentrations on PGCLC proliferation (fold difference d7/d1); format: cell-based, mouse; conditions: 10, 5, 1, 0 μM tested, without FR10
# E9.5 PGC = assay: Expansion culture of E9.5 PGC on m220-5 feeder; format: cell-based, mouse; conditions: CsA in addition to forskolin and PDE4 inhibitor (FR10)
# Procedure: as §4, §5
# d4c7 PGCLC = assay: Detection of apoptotic cells (Annexin V); format: cell-based, mouse; conditions: FR10+CsA compared to FR10 alone
# Procedure: d4c7 PGCLC cultured in FR10 or FR10+CsA was dispersed in single cells by TrypLE treatment, and stained using Annexin V Apoptosis Detection Kit APC (eBioscience) according to the manufacturer's instructions. The stained samples were analyzed using BD FACSAriaIII (BD) with FACSDiva (BD) software, and PGCLC was identified by BV fluorescence. Three biological replicates were analyzed for each sample.
# [4] = test system: testes of neonatal W/Wv mice; assay: Transplantation of amplified PGCLC into testes of neonatal W/Wv mice (spermatogenesis, offspring); format: in vivo, mouse; conditions: d4c7 PGCLC; neonatal W/Wv recipients
# Procedure: After purification of PGCLC by FACS, 1×10^4-1×10^5 cells per testis were injected into the testes of randomly selected neonatal (7 days old) or adult W/W^v mouse, as previously reported (Chuma et al, 2005). Where necessary, anti-mouse CD4 antibody ([…] per dose, clone GK1.5; Biolegend) was injected intraperitoneally on day 0, 2 or 4 for immunosuppression (Kanatsu-Shinohara et al, 2003). To assess pregnancy, recipients at 10 weeks post-transplant were mated with BDF1 females. The genotype of BVSC transgene progeny was determined as previously reported (Ohinata et al, 2008). For HE staining, testis or epididymis was fixed with Bouin's solution and embedded in paraffin, and sections were produced.
# Spermatozoons were collected from the cauda epididymis and pre-incubated in HTF medium (Kyudo Co., Ltd.) for 1 hr at 37° C. Eggs were collected from BDF1 females that were superovulated by injecting PMSG and hCG and fertilized with sperm in HTF medium. The obtained 2-cell embryos were transferred to the fallopian tube of pseudopregnant ICR females 0.5 days after pregnancy (dpc). Pups were delivered by cesarean section at 18.5 dpc.
# Spermatozoons were collected from the mouse testis that received transplantation of PGCLC by the method described in Example [I], and directly injected with a micromanipulator into the ovum collected from BDF1 females that were superovulated by injecting PMSG and hCG. […]
# cultured PGCLC [5] = assay: Cell cycle analysis of cultured PGCLC (BrdU/EdU, FACS); format: cell-based, mouse; conditions: FR10+CsA compared to FR10 alone
# Procedure: The cell cycle status of ESC, EpiLC, d4, d4c3, d4c5 and d4c7 PGCLC(BDF1-2) at E13.5, E14.5 and E15.5 and male germ cells was examined in the same manner as in a previous report (Kagiwada et al, 2013). To label the cultured cells, the cells were incubated with BrdU (10 μM) for 30 min. To label gem cells, female mice (ICR) were mated with Stella-EGFP males and pregnant females were intraperitoneally injected with 1 mg BrdU and embryos were harvested 30 min later. Cultured cells or male gonads were dispersed in single cells by TrypLE treatment. To detect BrdU uptake, the APC-BrdU Flow Kit (BD Biosciences) was used according to the manufacturer's instructions. The stained samples were analyzed using BD FACSAriaIII (BD) with FACS Diva (BD) software, and PGCLC or male gem cells were respectively identified by BV or Stella-EGFP fluorescence. Three biological replicates were analyzed for each sample.
# The analysis was performed as in Example [I] except that EdU (10 μM) was used in place of BrdU, and Click-iT™ Plus EdU Alexa Fluor™ 647 Flow Cytometry Assay Kit (Thermo Fisher Scientific) was used for detection of EdU uptake.
Compound,DT and BV expression in BV (+) cells [1],induction of SCP3 (PGC at E11.5),BVSC and VR expression [2],entry into meiosis by cell cycle profile (BV/SC(+) cells),BV/SC(+) cells expressing STRA8 (cultured PGCLC [3]; RA alone) [%],"induction of VR/DDX4 and SCP3 (+) cells (meiotic entry) (cultured PGCLC [3]; cultured PGCLC, c9, BMP4, 5, 7 combined with RA, BMS493 with BMP2, LDN193189 with RA and BMP2)",proliferation of PGCLC on average with CsA added (d4 PGCLC; 5 μM CsA in addition to forskolin and PDE4 inhibitor (FR10)),colony morphology and BVSC expression of expanded cells (d4 PGCLC; expansion culture on m220 feeder),fold difference (d7/d1) of BV signal in compound library screening (BV (+) d4 PGCLCs) [SD],most optimal concentration for growing PGCLCs (PGCLC) [µM],proliferation of E9.5 PGC with CsA added (E9.5 PGC),percentage of apoptotic cells (d4c7 PGCLC),function of amplified PGCLC after transplantation into testes [4],percentage of S-stage cells (cultured PGCLC [5])
"CC1=C(/C=C/C(C)=C/C=C/C(C)=C/C(=O)O)C(C)(C)CCC1 [RA, all trans retinoic acid]",increased DT levels,Neither control culture nor culture with RA alone induced SCP3,did not activate VR,did not go into meiosis even in c9,~77.7,did not activate VR/DDX4 or SCP3,–,–,–,–,–,–,–,–
"cyclo{-[(2S,3R,4R,6E)-3-hydroxy-4-methyl-2-methylaminooct-6-enoyl]-L-2-aminobutanoyl-N-methylglycyl-N-methyl-L-leucyl-L-valyl-N-methyl-L-leucyl-L-alanyl-D-alanyl-N-methyl-L-leucyl-N-methyl-L-leucyl-N-methyl-L-valyl-} [CsA]",–,–,–,–,–,–,about 50 fold,formed flat colonies and strongly expressed BVSCs,> 3,5,about 16 fold,decreased percentage of apoptotic cells,capable of differentiating into functional spermatozoa,increased percentage of S-stage
